Assay results: patent publication US9969715B2, “Compounds useful for treating cancer” (ABIVAX, priority 2012, dated 2018)

How the values were obtained:
[1] = test system: MDA-MB231-luc-D3H2LN cells; assay: Invasion of MDA-MB231-D3H2LN cells into collagen (example 15 = procedure 2, 48 h drug pre-incubation); type: cell-based; conditions: concentration giving 50% of the anti-invasive effect of 10 μM Y-27632; 48 h pre-incubation, 24 h with 5% FBS; read-out: MDA: Inhib. of invasion: 0.5 × eff. of 10 μM Y-27632 at (μM) av
Method: Effect of Drug Compounds on Invasion of MDA-MB231-D3H2LN Cells into Collagen
Preparation of cells at the bottom of a collagen gel: Cells are suspended in a liquid collagen solution (4° C.), distributed into BSA-coated wells, and then collected at the bottom of the wells by centrifugation. The collagen is then solidified by incubation at 37° C. The BSA coating improves the adhesion of the collagen gel.
Pre-treatment with the compounds to be tested: Concentrated drug solutions are then added on top of the collagen, and cells are pre-incubated for 48 h with the drugs at low serum conditions (0.025% FBS).
Stimulation of invasion: Medium with 5% FBS is then added in order to stimulate invasion of the cells into the collagen gel.
(§1) Viability assay, fixation and staining: Following another 24 h incubation, an MTS assay is performed directly on the cells in the collagen. Then, cells are fixed and nuclei are stained.
Analysis: Finally, plates are analyzed using an automated microscope. Fluorescent beads that have been included into the BSA coating serve to detect the bottom of the wells. Pictures of the stained nuclei are taken at the same level (0 μm) as well as 25 μm and 50 μm above.
Negative control: No drug (just DMSO at equivalent concentration). Positive control: 10 μM Y-27632. To avoid edge effects, cells are added only to the 60 central wells B2-G11; lines A and H receive only collagen without cells (blank for the MTS assay) columns 1 and 12 remain free. Each drug is tested at least in triplicate. The positive and negative controls should be tested in several triplicates at different positions on each plate. Typical plate map (−=negative control, +=positive control, 1-12=12 different test conditions, i. e. different drug compounds or concentrations):
Preparation of 4× concentrated drug solutions in MEM+0.1% FBS+2% Lutrol E-400+0.8% DMSO: Mix each 620 μl MEM+0.1% FBS+2% Lutrol E-400 with each 4 μl DMSO+each 1 μl of the 50 mM compound stock solutions (yielding […] and 0.8% DMSO). If the desired final compound concentration is <5 μM, then further dilute in MEM+0.1% FBS+0.8% DMSO. Negative control: MEM+0.1% FBS+2% Lutrol E-400+0.8% DMSO without any drug. Preparation of the positive control: Mix 4.5 ml MEM+0.1% FBS+2% Lutrol E-400+[…] with 36 μl 5 mM Y-27632 (freshly thawed aliquot) (yielding 40 μM).
add each 33 μl/well of the 4× concentrated drug solutions in MEM+0.1% FBS+2% Lutrol E-400+0.8% DMSO to the corresponding wells (yields 1× concentrated drugs in MEM+0.025% FBS+0.5% Lutrol E-400+0.2% DMSO final)
incubate 48 h at 37° C./5% CO2
incubate 24 h at 37° C./5% CO2
for each well, calculate the mean invasion distance of the counted cells: (25 μm×number of cells at 25 μm+50 μm×number cells at 50 μm)/sum of cells at 0, 25 and 50 μm
invalidate any replicate with a CV≥50% (compound to be re-tested, or assay to be repeated if CV≥50% for the untreated negative control or the compound Y-27632-treated positive control). Y27632 is a selective inhibitor of the Rho-associated protein kinase p160ROCK of the following formula
validate the assay only if the mean invasion distance of the cells treated with 10 μM Y-27632 (positive control) is decreased by ≥40% as compared to the untreated negative control
(§2) Final analysis: Determine the concentration at which a given compound has 50% of the anti-invasive effect of the positive control (10 μM Y-27632). Determine the toxicity (=loss of viability) of the compound under these conditions.
Here, invasion (into collagen) is the concentration of the compound necessary to reach 50% of the inhibition effect compared to 10 μM Y-27632.
Standard operating procedure 2 is exactly the same as the procedure as described in example 15.

human PBMC = assay: Toxicity assay under normal cell culture conditions (MTS), PBMC; type: cell-based; conditions: human PBMC, RPMI+10% FBS+IL-2, 72 h incubation, MTS
Method: (§3) Toxicity Assays (Under Normal Cell Culture Conditions):
(§4) Compounds were prepared as for the invasion assay, and then added to either MDA-MB231-luc-D3H2LN cells (2000/well) under normal culture conditions (MEM+10% FBS), or human PBMC (75000/well, in RPMI+10% FBS+IL-2) in standard 96-well tissue culture plates. After 72 h incubation, a standard MTS assay was performed according to the manufacturer's instructions (Promega Ref. G3581). Compounds were tested at various concentrations (concentration-response curves) in order to determine the concentrations at which 50% toxicity is obtained.

[2] = test system: MDA-MB231-luc-D3H2LN cells; assay: Toxicity assay under normal cell culture conditions (MTS), MDA cells; type: cell-based, human; conditions: MDA-MB231-luc-D3H2LN cells, MEM+10% FBS, 72 h incubation, MTS
Method: (§5) In order to detect possible toxic effects, all compounds are tested in parallel in a viability assay. The viability assay is performed in parallel on serum-starved cells (as in the invasion assay) vs. cells under normal culture conditions (10% FBS).
as §3, §4

[3] = test system: MDA-MB231-luc-D3H2LN cells; assay: Viability (MTS) assay on the cells in collagen under invasion assay conditions; type: cell-based, human; conditions: loss of viability at the concentration giving 0.5 × effect of 10 μM Y-27632, invasion assay conditions
Method: as §1, §5
Viability Assay: MTS Assay:
add each 33 μl/well of the MTS reagent, incubate 3-4 h at 37° C./5% CO2
read absorbance at 490 nm (proportional to the viability)
calculate the background-corrected signals by subtracting the means of the background signals in absence of cells from the corresponding signals in presence of cells
normalize the background-corrected signals with respect to the mean signal of the negative controls (no drug) (viabilities are thus expressed in “% of control”)
as §2

| IC50 [1] | SMILES | PBMC tox.: 50% tox. at (μM) av (human PBMC) | MDA tox: 50% tox. at (μM) av [2] | (+ MDA tox. under these cond.) % tox [3] |
| --- | --- | --- | --- | --- |
| 3.45 µM | CN(C(=O)c1cccc(Nc2cccc(C(=O)NCCCN3CCCC3)c2)c1)c1ccncc1 [Compound 18, N-methyl-N-(pyridin-4-yl)-3-((3-((3-(pyrrolidin-1-yl)propyl)carbamoyl)phenyl)amino)benzamide] | >100 µM | >100 µM | <10% |
| 0.53 µM | O=C(Nc1ccncc1)c1cccc(Nc2cccc(S(=O)(=O)NCCN3CCCCC3)c2)c1 [Compound 10, 3-((3-(N-(2-(piperidin-1-yl)ethyl)sulfamoyl)phenyl)amino)-N-(pyridin-4-yl)benzamide] | 29 µM | 45 µM | <10% |
| 0.75 µM | O=C(NCCCN1CCOCC1)c1cccc(Nc2cc(C(=O)Nc3ccncc3)ccn2)c1 [Compound 48, 2-((3-((3-morpholinopropyl)carbamoyl)phenyl)amino)-N-(pyridin-4-yl) isonicotinamide] | 26 µM | 80 µM | <10% |
| 3.75 µM | CCN(CC)CCCNC(=O)c1cccc(Nc2cccc(C(=O)N(C)c3ccncc3)c2)n1 [Compound 37, N-(3-(diethylamino)propyl)-6-((3-(methyl(pyridin-4-yl)carbamoyl)phenyl)amino)picolinamide] | >>100 μM | >>100 μM | <10% |
| 7.5 µM | CN1CCN(C(=O)c2cccc(Nc3cccc(C(=O)Nc4ccncc4)c3)c2)CC1 [Compound 8, 3-((3-(4-methylpiperazine-1-carbonyl)phenyl)amino)-N-(pyridin-4-yl)benzamide] | – | >>100 μM | – |
| ≥ 4.6 µM | O=C(Nc1ccncc1)c1ccc(Nc2cccc(S(=O)(=O)NCCN3CCCC3)c2)cc1 [Compound 16, N-(pyridin-4-yl)-4-((3-(N-(2-(pyrrolidin-1-yl)ethyl)sulfamoyl)phenyl)amino)benzamide] | 10 µM | 78 µM | – |
| > 5 µM | CCN(CC)CCCNC(=O)c1cccc(Nc2ccc(C(=O)Nc3ccncc3)cc2)c1 [Compound 13, N-(3-(diethylamino)propyl)-3-((4-(pyridin-4-ylcarbamoyl)phenyl)amino)benzamide] | 34 µM | 93 µM | – |
| 3 µM | CCN(CC)CCCNC(=O)c1cccc(Nc2cccc(C(=O)N(C)c3ccncc3)c2)c1 [Compound 17, 3-((3-((3-(diethylamino)propyl)carbamoyl)phenyl)amino)-N-methyl-N-(pyridin-4-yl)benzamide] | >100 µM | >100 µM | <10% |
| 0.28 µM | O=C(NCCCN1CCOCC1)c1cccc(Nc2cccc(C(=O)Nc3ccncn3)c2)c1 [Compound 30, N-(3-morpholinopropyl)-3-((3-(pyrimidin-4-ylcarbamoyl)phenyl)amino)benzamide] | >100 µM | 75 µM | <10% |
| 1.15 µM | CCN(CC)CCCNC(=O)c1ccnc(Nc2cc(C(=O)Nc3ccncc3)ccn2)c1 [Compound 44, N-(3-(diethylamino)propyl)-2-((4-(pyridin-4-ylcarbamoyl)pyridin-2-yl)amino)isonicotinamide] | >100 µM | >100 µM | <10% |
| 0.1 µM | CN1CCN(CCCNC(=O)c2cccc(Nc3cccc(C(=O)Nc4ccncn4)c3)c2)CC1 [Compound 31, N-(3-(4-methylpiperazin-1-yl)propyl)-3-((3-(pyrimidin-4-ylcarbamoyl)phenyl)amino)benzamide] | 92 µM | 95 µM | <10% |
| 7.5 µM | CCN(CC)CCCNS(=O)(=O)c1cccc(Nc2cc(C(=O)Nc3ccncc3)ccn2)c1 [Compound 46, 2-((3-(N-(3-(diethylamino)propyl)sulfamoyl)phenyl)amino)-N-(pyridin-4-yl)isonicotinamide] | >100 µM | >100 µM | – |
| > 5 µM | CN(C(=O)c1cccc(Nc2cccc(S(=O)(=O)NCCCN3CCOCC3)c2)c1)c1ccncc1 [Compound 23, N-methyl-3-((3-(N-(3-morpholinopropyl)sulfamoyl)phenyl)amino)-N-(pyridin-4-yl)benzamide] | >70 µM | >100 µM | – |
| > 5 µM | CCN(CC)CCCNC(=O)c1cccc(Nc2ccc(C(=O)Nc3ccncc3)cc2)n1 [Compound 36, N-(3-(diethylamino)propyl)-6-((4-(pyridin-4-ylcarbamoyl)phenyl)amino)picolinamide] | 58 µM | >>100 μM | – |
| > 5 µM | CCN(CC)CCCNC(=O)c1ccc(Nc2cccc(C(=O)Nc3ccncc3)c2)cc1 [Compound 2, 3-((4-((3-(diethylamino)propyl)carbamoyl)phenyl)amino)-N-(pyridin-4-yl)benzamide] | 156 µM | 103 µM | – |
| > 2.5 µM | O=C(NCCCN1CCOCC1)c1cccc(Nc2ccc(C(=O)Nc3ccncc3)cc2)c1 [Compound 14, N-(3-morpholinopropyl)-3-((4-(pyridin-4-ylcarbamoyl)phenyl)amino)benzamide] | 20 µM | 70 µM | – |
| > 5 µM | CCN(CC)CCCNS(=O)(=O)c1cccc(Nc2cccc(C(=O)N(C)c3ccncc3)c2)c1 [Compound 19, 3-((3-(N-(3-(diethylamino)propyl)sulfamoyl)phenyl)amino)-N-methyl-N-(pyridin-4-yl)benzamide] | >100 µM | >100 µM | – |
